In ChEMBL document CHEMBL1799925, “Inhibition of sphingosine 1-phosphate lyase for the treatment of rheumatoid arthritis: discovery of (E)-1-(4-((1R,2S,3R)-1,2,3,4-tetrahydroxybutyl)-1H-imidazol-2-yl)ethanone oxime (LX2931) and (1R,2S,3R)-1-(2-(isoxazol-3-yl)-1H-imidazol-4-yl)butane-1,2,3,4-tetraol (LX2932)” (J Med Chem, 2010):

Tests used:
[1] = Half life in 129/SvEvBrd X C57BL/6 F1 mouse at 10 mg/kg, po by LC/MS/MS analysis; format: ADME, organism-based; set-up: dose 10 mg/kg, route oral; conditions: in vivo
[2] = Cmax in 129/SvEvBrd X C57BL/6 F1 mouse at 10 mg/kg, po by LC/MS/MS analysis; format: ADME, organism-based; set-up: dose 10 mg/kg, route oral; conditions: in vivo
[3] = Tmax in 129/SvEvBrd X C57BL/6 F1 mouse at 10 mg/kg, po by LC/MS/MS analysis; format: ADME, organism-based; set-up: dose 10 mg/kg, route oral; conditions: in vivo
[4] = Volume of distribution at steady state in 129/SvEvBrd X C57BL/6 F1 mouse at 1 mg/kg, iv by LC/MS/MS analysis; format: ADME, organism-based; set-up: dose 1 mg/kg, route intravenous; conditions: in vivo, read-out: Vdss
[5] = Clearance in 129/SvEvBrd X C57BL/6 F1 mouse at 1 mg/kg, iv by LC/MS/MS analysis; format: ADME, organism-based; set-up: dose 1 mg/kg, route intravenous; conditions: in vivo
[6] = Bioavailability in 129/SvEvBrd X C57BL/6 F1 mouse determined from 1 mg/kg, iv and 10 mg/kg, po by LC/MS/MS analysis; format: ADME, organism-based; conditions: 129/SvEvBrd X C57BL/6 F1, mouse, in vivo
[7] = Tmax in Sprague-Dawley rat at 10 mg/kg, po by LC/MS/MS analysis; format: ADME, organism-based; set-up: dose 10 mg/kg, route oral; conditions: in vivo
[8] = Cmax in Sprague-Dawley rat at 10 mg/kg, po by LC/MS/MS analysis; format: ADME, organism-based; set-up: dose 10 mg/kg, route oral; conditions: in vivo
[9] = AUC (0 to infinity) in Sprague-Dawley rat at 10 mg/kg, po by LC/MS/MS analysis; format: ADME, organism-based; set-up: time infinity, dose 10 mg/kg, route oral; conditions: plasma
[10] = tested on: Rattus norvegicus; experiment: Volume of distribution at steady state in Sprague-Dawley rat at 10 mg/kg, po by LC/MS/MS analysis; format: ADME, organism-based; set-up: dose 10 mg/kg, route oral; conditions: in vivo
[11] = Clearance in Sprague-Dawley rat at 1 mg/kg, iv by LC/MS/MS analysis; format: ADME, organism-based; set-up: dose 1 mg/kg, route intravenous; conditions: in vivo
[12] = Oral bioavailability in Sprague-Dawley rat determined from 1 mg/kg, iv and 10 mg/kg, po by LC/MS/MS analysis; format: ADME, organism-based; conditions: in vivo
[13] = Tmax in Beagle dog at 50 mg/kg, po by LC/MS/MS analysis; format: ADME, organism-based, Canis lupus familiaris; set-up: dose 50 mg/kg, route oral; conditions: in vivo
[14] = Cmax in Beagle dog at 50 mg/kg, po by LC/MS/MS analysis; format: ADME, organism-based, Canis lupus familiaris; set-up: dose 50 mg/kg, route oral; conditions: in vivo
[15] = AUC (0 to infinity) in Beagle dog at 50 mg/kg, po by LC/MS/MS analysis; format: ADME, organism-based, Canis lupus familiaris; set-up: dose 50 mg/kg, route oral, time infinity; conditions: plasma
[16] = tested on: Canis familiaris; experiment: Volume of distribution at steady state in Beagle dog at 50 mg/kg, po by LC/MS/MS analysis; format: ADME, organism-based, Canis lupus familiaris; set-up: dose 50 mg/kg, route oral; conditions: in vivo
[17] = Clearance in Beagle dog at 1 mg/kg, iv by LC/MS/MS analysis; format: ADME, organism-based, Canis lupus familiaris; set-up: dose 1 mg/kg, route intravenous; conditions: in vivo
[18] = Bioavailability in Beagle dog determined from 1 mg/kg, iv and 50 mg/kg, po by LC/MS/MS analysis; format: ADME, organism-based, Canis lupus familiaris; conditions: in vivo
[19] = Tmax in cynomolgus monkey at 30 mg/kg, po by LC/MS/MS analysis; format: ADME, organism-based, Macaca fascicularis; set-up: dose 30 mg/kg, route oral; conditions: in vivo
[20] = Cmax in cynomolgus monkey at 30 mg/kg, po by LC/MS/MS analysis; format: ADME, organism-based, Macaca fascicularis; set-up: dose 30 mg/kg, route oral; conditions: in vivo
[21] = AUC (0 to infinity) in cynomolgus monkey at 30 mg/kg, po by LC/MS/MS analysis; format: ADME, organism-based, Macaca fascicularis; set-up: dose 30 mg/kg, route oral, time infinity; conditions: plasma
[22] = tested on: Cynomolgus monkey; experiment: Volume of distribution at steady state in cynomolgus monkey at 30 mg/kg, po by LC/MS/MS analysis; format: ADME, organism-based, Macaca fascicularis; set-up: dose 30 mg/kg, route oral; conditions: in vivo
[23] = Clearance in cynomolgus monkey at 1 mg/kg, iv by LC/MS/MS analysis; format: ADME, organism-based, Macaca fascicularis; set-up: dose 1 mg/kg, route intravenous; conditions: in vivo
[24] = Bioavailability in cynomolgus monkey determined from 1 mg/kg, iv and 30 mg/kg, po by LC/MS/MS analysis; format: ADME, organism-based, Macaca fascicularis; conditions: in vivo
[25] = Tmax in healthy human at 1 mg/kg, po by LC/MS/MS analysis; format: ADME, organism-based; set-up: dose 1 mg/kg, route oral; conditions: in vivo
[26] = Cmax in healthy human at 1 mg/kg, po by LC/MS/MS analysis; format: ADME, organism-based; set-up: dose 1 mg/kg, route oral; conditions: in vivo
[27] = AUC (0 to infinity) in healthy human at 1 mg/kg, po by LC/MS/MS analysis; format: ADME, organism-based; set-up: time infinity, dose 1 mg/kg, route oral; conditions: plasma
[28] = tested on: Rattus norvegicus; experiment: Increase in S1P level in Sprague-Dawley rat thymus at 30 mg/kg, po administered daily for 3 days measured after 18 hrs […] relative to untreated control; format: functional
[29] = tested on: Rattus norvegicus; experiment: Increase in S1P level in Sprague-Dawley rat spleen at 30 mg/kg, po administered daily for 3 days measured after 18 hrs […] relative to untreated control; format: functional
[30] = tested on: Rattus norvegicus; experiment: Increase in S1P level in Sprague-Dawley rat jejunum at 30 mg/kg, po administered daily for 3 days measured after 18 hrs […] relative to untreated control; format: functional
[31] = tested on: Mus musculus; experiment: Immunomodulatory activity in mouse assessed as induction of lymphopenia at 30 to 100 mg/kg, po administered as single dose measured after 18 hrs; format: functional; conditions: dose mg/kg 30-100
[32] = tested on: Mus musculus; experiment: Antiarthritic activity in […] collagen-induced arthritic mouse assessed as decrease in circulating T cells at 100 mg/kg, po qd administered one day before collagen challenge; format: functional, T-cell; set-up: scale not given: the % may be the effect or the level left
[33] = tested on: Canis familiaris; experiment: Cardiotoxicity in Beagle dog assessed as increase in heart rate at 500 mg/kg, po administered as single dose after 24 hrs by electrocardiogram analysis; format: toxicity, organism-based, Canis lupus familiaris; set-up: dose 500 mg/kg, route oral; conditions: in vivo
[34] = tested on: Cynomolgus monkey; experiment: Cardiotoxicity in cynomolgus monkey assessed as increase in heart rate at 1000 mg/kg, po administered as single dose after 24 hrs by electrocardiogram analysis; format: toxicity, organism-based, Macaca fascicularis; set-up: dose 1000 mg/kg, route oral; conditions: in vivo
[35] = tested on: Homo sapiens; experiment: Immunomodulatory activity in arthritic patient assessed as decrease in peripheral lymphocytes at […], po administered as single dose after 48 hrs; format: functional; set-up: scale not given: the % may be the effect or the level left
[36] = tested on: Homo sapiens; experiment: Toxicity in arthritic patient assessed as tolerability at […], po administered as single dose; format: organism-based; set-up: route oral; conditions: in vivo
[37] = tested on: Mus musculus; experiment: Immunomodulatory activity in 129/SvEvBrd X C57BL/6 F1 mouse assessed as decrease in peripheral blood lymphocyte count at 30 mg/kg, po measured after 18 hrs by complete blood count analysis relative to control; format: ADME, organism-based; set-up: dose 30 mg/kg, route oral; scale not given: the % may be the effect or the level left; conditions: in vivo
[38] = AUC (0 to infinity) in 129/SvEvBrd X C57BL/6 F1 mouse at 10 mg/kg, po by LC/MS/MS analysis; format: ADME, organism-based, Plasma; set-up: time infinity, dose 10 mg/kg, route oral; conditions: 129/SvEvBrd X C57BL/6 F1, mouse, plasma

- half-life [1]: 1.6 h
- Cmax [2]: 3.6 µM
- Tmax [3]: 0.45 h
- Vd [4]: 0.9 L/kg
- clearance [5]: 7.6 mL/min/kg
- bioavailability [6]: 6.8%
- Tmax [7]: 2 h
- Cmax [8]: 2.7 µM
- AUC(0-inf) [9]: 18.7 µM·h
- Vdss [10]: 0.6 L/kg
- clearance [11]: 10.2 mL/min/kg
- bioavailability [12]: 26%
- Tmax [13]: 2 h
- Cmax [14]: 79.5 µM
- AUC(0-inf) [15]: 323 µM·h
- Vdss [16]: 0.3 L/kg
- clearance [17]: 3.5 mL/min/kg
- bioavailability [18]: 32.1%
- Tmax [19]: 2.3 h
- Cmax [20]: 16.9 µM
- AUC(0-inf) [21]: 70.1 µM·h
- Vdss [22]: 0.5 L/kg
- clearance [23]: 4.8 mL/min/kg
- bioavailability [24]: 16.4%
- Tmax [25]: 2 h
- Cmax [26]: 3 µM
- AUC(0-inf) [27]: 19 µM·h
- Activity [37]: -60%
- AUC(0-inf) [38]: 8.8 µM·h
SMILES: C/C(=N\O)c1nc([C@@H](O)[C@H](O)[C@H](O)CO)c[nH]1.Cl
- fold change (FC) [28]: 80
- fold change (FC) [29]: 24
- fold change (FC) [30]: 45
- Activity [31]: 40%
- Activity [32]: 40%
- Activity [33]: Non-toxic
- Activity [34]: Non-toxic
- Activity [35]: 50%
- Activity [36]: Non-toxic
